Consider six compounds from US20160050930A1, “METHODS OF CONTROLLING NEONICOTINOID RESISTANT PESTS” (SYNGENTA PARTICIPATIONS AG, priority 2013, published 2016).

Each structure is given as a SMILES string. Where a name gives a salt, the structure may show the parent alone.

The compound `CC(C)(C)OC(=O)N1[C@@H]2CC[C@H]1C[C@](C#N)(c1cncc(Br)c1)C2` returned a melting point of 125 to 127 °C.

Compound `N#C[C@@]1(c2cncc(Br)c2)C[C@H]2CC[C@@H](C1)N2` had a melting point of 128 to 130 °C.

As to `N#C[C@@]1(c2cncc(Br)c2)C[C@H]2C=C[C@@H](C1)N2`, the melting point lay in the range of 152 to 153 °C.

Consider `N#C[C@@]1(c2cncc(F)c2)C[C@H]2C=C[C@@H](C1)N2C1CCC1`, for which the melting point lay in the range of 91 to 93 °C.

Take `N#C[C@@]1(c2cncc(I)c2)C[C@H]2C=C[C@@H](C1)N2C1COC1`: the melting point was 170 to 171 °C.

For `N#C[C@@]1(c2cncc(Br)c2)C[C@H]2CC[C@@H](C1)N2` (as salt: TFA), the melting point lay within 176 to 178 °C.

A word on the melting point: it is the temperature of the solid-liquid transition.
